Experimental data reported in US8338480B2, “Combination treatment of metabolic disorders” (Wellstat Therapeutics Corporation, priority 2006, dated 2012).
Where a name gives a salt, the structure may show the parent alone.

Experiments:
Type in all cases: in vivo
[1] = test system: Gold Thioglucose-obese mice; assay: Serum glucose, triglycerides and free fatty acids in gold thioglucose-obese mice (Example 1); conditions: GTG-obese mice, after two weeks
Experimental: Systemic administration of gold thioglucose (GTG) damages glucose-sensing neurons in the hypothalamus, and consequently impairs regulation of satiety, leading to chronic hyperphagia and consequent obesity.
(§1) Mice received single daily oral treatment with Compound BI, rosiglitazone or combinations of the two drugs. A group of lean control mice on a standard low fat rodent chow was also included.
(§2) • 1. Vehicle (1% hydroxypropylmethylcellulose) • 2. Compound BI 30 mg/kg • 3. Compound BI 100 mg/kg • 4. Rosiglitazone (RSG) 3 mg/kg • 5. RSG 3 mg/kg+Compound BI 30 mg/kg • 6. RSG 3 mg/kg+Compound BI 100 mg/kg • 7. Lean Control (no treatment)
After two weeks, blood samples were collected from the retro-orbital sinus for measurement of serum glucose, triglycerides, and free fatty acids.

[2] = test system: Gold Thioglucose-obese (GTG) mice; assay: Body weight and cumulative food intake in gold thioglucose-obese mice (Example 1); conditions: for Δ BW (g) 0-5 Weeks / Body Weight (g ± SEM) Week 1 / Body Weight (g ± SEM) Week 4 / Body Weight (g ± SEM) Week 5: GTG mice; for Cumulative Food Intake / Cumulative Food Intake (grams): per cage of 5 mice
Experimental: Systemic administration of gold thioglucose (GTG) damages glucose-sensing neurons in the hypothalamus, and consequently impairs regulation of satiety, leading to chronic hyperphagia and consequent obesity. Male C57BL/6J mice, weighing 22 to 25 grams received gold thioglucose (Sigma Chemical Company, St. Louis Mo.) by intraperitoneal injection (500 mg/kg). Mice were given a high fat diet (45% Kcal fat; D12451, Research Diets, New Brunswick, N.J.) for 8 weeks to exacerbate obesity.
as §1, with “Mice were then divided into groups comprising 5 mice each, sorted so that each group had similar mean body weights (approximately 47 grams). Mice” for “Mice”
as §2

[3] = test system: db/db mice; assay: Serum glucose in db/db mice treated for two weeks (Example 6); conditions: for Glucose / Glucose (% Control): two weeks daily oral; for Glucose (% Control): vehicle = 100
Experimental: A minimum of 7 days was allowed for adaptation after arrival.
Treatment cohorts were given daily oral doses of vehicle, Compound BI (100 mg/kg/day), rosiglitazone (RSG; 3 mg/kg/day) or a combination of the two drugs for 2 weeks. At the end of the treatment period epididymal fat pads were excised, frozen and subsequently processed for measurement of UCP1 by Western Blot analysis. Blood samples were also collected prior to sacrifice via the retro-orbital plexus, and processed and analyzed for serum glucose (AniLytics, Inc.; Gaithersburg Md.).

[4] = test system: Uncoupling Protein 1 (UCP1); assay: UCP1 content of white adipose tissue by Western blot in db/db mice (Example 6); conditions: for WAT UCP1 (relative light units): db/db mice epididymal fat pads, two weeks daily oral
Text: Uncoupling Protein 1 (UCP1) is a protein that can dissipate metabolic energy when expressed in the mitochondrial membrane. It is present in brown adipose tissue (BAT; the brown color is due to a higher density of mitochondria than in white adipose tissue) in small mammals where its main function is to generate heat, but it can also serve to accelerate combustion of fatty acids. This latter function is especially important when UCP1 is expressed in tissues other than brown fat, since depots of brown fat are limited in humans Expression of UCP1 in white fat alters the functional phenotype of the tissue from fat storage to fat combustion. Transgenic mice expressing UCP1 in white adipose tissue are resistant to obesity and diabetes induced by a high fat diet. Pharmacological induction of UCP1 expression in white adipose tissue is therefore an attractive strategy for promoting weight reduction and resistance to body weight gain. […]
Treatment cohorts were given daily oral doses of vehicle, Compound BI (100 mg/kg/day), rosiglitazone (RSG; 3 mg/kg/day) or a combination of the two drugs for 2 weeks. […] Blood samples were also collected prior to sacrifice via the retro-orbital plexus, and processed and analyzed for serum glucose (AniLytics, Inc.; Gaithersburg Md.). […]
The membrane was washed 3 times in TBST at room temperature, and then incubated with a primary anti UCPI antibody (Chemicon Rabbit anti-mouse UCP-1, catalogue #AB3036) for 1 hr at RT (room temperature) in a sealed bag. […] The membrane was washed 6×7 min in TBST at room temperature, and then incubated with ECL (enhanced chemiluminescence) reagent (Amersham) for 1 min, and the relative amounts of UCP1 in tissue samples were quantified by densitometry of the images on X-ray film resulting from exposure to light from the chemiluminescence reaction, and expressed as relative light units (RLU).

[5] = Compound BI 30 mg/kg oral daily
[6] = Compound BI 100 mg/kg oral daily
[7] = GTG-obese mice, 5 weeks, Compound BI 30 mg/kg
[8] = GTG-obese mice, 5 weeks, Compound BI 100 mg/kg
[9] = GTG-obese mice, 5 weeks, RSG 3 mg/kg

Cc1cccc(C)c1COc1cccc(C(=O)CCC(=O)O)c1 [Compound BI, 4-(3-(2,6-Dimethylbenzyloxy)phenyl)-4-oxobutyric acid]
blood glucose, triglycerides and free fatty acids (in words) [1]: dose-dependent decreases
Free Fatty Acids ± SEM [1, 5]: 969.2 ± 18.2 UMOL/L
Glucose ± SEM [1, 5]: 205.8 ± 8.1 mg/dL
Triglycerides ± SEM [1, 5]: 62.8 ± 3.0 mg/dL
Free Fatty Acids ± SEM [1, 6]: 936.2 ± 63.0 UMOL/L
Glucose ± SEM [1, 6]: 160.0 ± 17.7 mg/dL
Triglycerides ± SEM [1, 6]: 53.8 ± 7.4 mg/dL
Δ BW (g) 0-5 Weeks [2, 5]: -9.8 ± 0.2 g
Δ BW (g) 0-5 Weeks [2, 6]: -14.6 ± 0.3 g
Body Weight (g ± SEM) Week 1 [2, 5]: 39.8 ± 0.9 g
Body Weight (g ± SEM) Week 1 [2, 6]: 38.4 ± 1.1 g
Body Weight (g ± SEM) Week 4 [2, 5]: 40.0 ± 1.1 g
Body Weight (g ± SEM) Week 4 [2, 6]: 34.0 ± 1.0 g
Body Weight (g ± SEM) Week 5 [2, 5]: 37.4 ± 0.9 g
Body Weight (g ± SEM) Week 5 [2, 6]: 33.0 ± 1.1 g
total food and calorie consumption (in words) ([2]; GTG-obese mice, 5 weeks): reduced total food and calorie consumption
Cumulative Food Intake [2, 7]: 1048 kcal
Cumulative Food Intake (grams) [2, 7]: 223 grams
Cumulative Food Intake [2, 8]: 902 kcal
Cumulative Food Intake (grams) [2, 8]: 192 grams
body weight (in words) ([2]; GTG-obese mice, over the course of 5 weeks): decrease in body weight
serum glucose (in words) ([3]; 2 weeks, Compound BI 100 mg/kg/day, RSG 3 mg/kg/day, alone or combined): reduced serum glucose relative to vehicle treated control animals
Glucose ([3]; Cpd. BI 100 mg/kg): 302.0 ± 40.7 mg/dL
Glucose (% Control) ([3]; Cpd. BI 100 mg/kg): 44 ± 6 % Control
WAT UCP1 (relative light units) ([4]; Cpd. BI 100 mg/kg): 322 ± 94 relative light units
UCP1 content of white adipose tissue (in words) ([4]; db/db mice, 2 weeks, Compound BI 100 mg/kg/day, RSG 3 mg/kg/day, alone or combined): slightly the UCP1 content of elevated white adipose tissue

CN(CCOc1ccc(CC2SC(=O)NC2=O)cc1)c1ccccn1 (centres unmarked) [RSG, rosiglitazone maleate, reference compound]
Free Fatty Acids ± SEM ([1]; RSG 3 mg/kg oral daily): 813.8 ± 34.2 UMOL/L
Glucose ± SEM ([1]; RSG 3 mg/kg oral daily): 215.8 ± 14.3 mg/dL
Triglycerides ± SEM ([1]; RSG 3 mg/kg oral daily): 61.4 ± 4.3 mg/dL
Δ BW (g) 0-5 Weeks ([2]; RSG 3 mg/kg oral daily): -1.2 ± 0.2 g
Body Weight (g ± SEM) Week 1 ([2]; RSG 3 mg/kg oral daily): 47.0 ± 1.0 g
Body Weight (g ± SEM) Week 4 ([2]; RSG 3 mg/kg oral daily): 46.0 ± 1.1 g
Body Weight (g ± SEM) Week 5 ([2]; RSG 3 mg/kg oral daily): 46.3 ± 1.0 g
Cumulative Food Intake [2, 9]: 1293 kcal
Cumulative Food Intake (grams) [2, 9]: 275 grams
Glucose ([3]; RSG 3 mg/kg): 403.7 ± 28.0 mg/dL
Glucose (% Control) ([3]; RSG 3 mg/kg): 59 ± 4 % Control
WAT UCP1 (relative light units) ([4]; RSG 3 mg/kg): 2067 ± 717 relative light units
